Target: T1, Menin (Homo sapiens, UniProt O00255)
T1 sequence (O00255 whole entry): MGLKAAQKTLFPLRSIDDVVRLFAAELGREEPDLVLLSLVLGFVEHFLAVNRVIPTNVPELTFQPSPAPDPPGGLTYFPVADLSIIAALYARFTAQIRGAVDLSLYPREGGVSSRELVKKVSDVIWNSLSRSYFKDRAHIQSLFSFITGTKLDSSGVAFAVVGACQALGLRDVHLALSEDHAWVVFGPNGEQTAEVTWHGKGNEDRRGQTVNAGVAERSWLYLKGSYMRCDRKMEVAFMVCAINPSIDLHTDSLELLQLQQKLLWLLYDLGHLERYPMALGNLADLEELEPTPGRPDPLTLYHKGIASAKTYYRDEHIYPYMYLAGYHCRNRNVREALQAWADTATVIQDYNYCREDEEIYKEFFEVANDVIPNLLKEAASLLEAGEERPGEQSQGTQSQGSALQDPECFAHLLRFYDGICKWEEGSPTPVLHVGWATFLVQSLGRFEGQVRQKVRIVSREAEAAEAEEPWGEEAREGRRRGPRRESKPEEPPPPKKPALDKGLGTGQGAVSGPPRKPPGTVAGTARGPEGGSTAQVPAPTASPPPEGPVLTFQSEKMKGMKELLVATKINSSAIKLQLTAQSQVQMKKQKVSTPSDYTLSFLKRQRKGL
Assay: Menin-MLL Interaction Inhibitory Activity Assay
Method: The inhibition of Menin/MLL-4-43 peptide interaction by small molecule inhibitors was quantitatively detected by fluorescence polarization competition assay. The experiment was performed in a 384-well plate (Corning, Cat #3575) using a reaction buffer consisting of 50 mM Tris, pH 7.5, 50 mM NaCl, and 1 mM DTT. A 40 μL reaction system included 10 μL of 8 nM Menin recombinant protein and 10 μL of the test compound at different concentrations. The compound was pre-incubated with Menin protein for 15 min, and then 20 μL of 10 nM FITC-MLL4-43-peptide was added. After incubation on a shaker at 25° C. for 60 min, the fluorescence polarization signal (FP 485 520 520) was read using BMG PHERAStar detection. The experimental data was analyzed and processed by GraphPad Prism 6 software to obtain the IC50 value.

| Compound | IC50 |
| --- | --- |
| CCN(C(=O)c1cc(F)ccc1Oc1cncnc1N1CC2(CCN(C[C@H]3CC[C@@]4(CCC(=O)N4)CC3)CC2)C1)C(C)C [US20250074910, Example 1] | 36.3 nM |
| CC(C)N(C(=O)c1cc(F)ccc1Oc1nncnc1N1CC2(CCN(C[C@H]3CC[C@]4(CC3)CC(CO)(CO)C(=O)N4)CC2)C1)C(C)C [US20250074910, Example 63] | 8.3 nM |
